Measured values as given in PubChem BioAssay (NCI).
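Cells were grown in 96-well plates and exposed to each compound for 48 hours at five concentrations; endpoints were interpolated linearly between bracketing concentrations, or set to the highest concentration if not reached. TGI denotes the concentration required for complete inhibition of growth.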

What was measured:
Assay in all cases: DTP human tumour cell line panel, 48 h
[1] = system: 786-0 renal
[2] = system: A498 renal
[3] = system: A549 NSCLC
[4] = system: ACHN renal
[5] = system: CAKI-1 renal
[6] = system: CCRF-CEM leukemia
[7] = system: COLO 205 colon
[8] = system: DLD-1 colon
[9] = system: DMS 114 small cell lung
[10] = system: DMS 273 small cell lung
[11] = system: EKVX NSCLC
[12] = system: HCT-116 colon
[13] = system: HCT-15 colon
[14] = system: HL-60(TB) leukemia
[15] = system: HOP-18 NSCLC
[16] = system: HOP-62 NSCLC
[17] = system: HOP-92 NSCLC
[18] = system: HT29 colon
[19] = system: IGROV1 ovarian
[20] = system: K-562 leukemia
[21] = system: KM12 colon
[22] = system: KM20L2 colon
[23] = system: LOX IMVI melanoma
[24] = system: LXFL 529 NSCLC
[25] = system: M14 melanoma
[26] = system: M19-MEL melanoma
[27] = system: MALME-3M melanoma
[28] = system: MOLT-4 leukemia
[29] = system: NCI-H23 lung
[30] = system: NCI-H460 lung
[31] = system: NCI-H522 lung
[32] = system: OVCAR-3 ovarian
[33] = system: OVCAR-4 ovarian
[34] = system: OVCAR-5 ovarian
[35] = system: OVCAR-8 ovarian
[36] = system: RPMI-8226 leukemia
[37] = system: RXF 393 renal
[38] = system: SF-268 CNS
[39] = system: SF-295 CNS
[40] = system: SF-539 CNS
[41] = system: SK-MEL-2 melanoma
[42] = system: SK-MEL-28 melanoma
[43] = system: SK-MEL-5 melanoma
[44] = system: SK-OV-3 ovarian
[45] = system: SN12C renal
[46] = system: SNB-19 CNS
[47] = system: SNB-75 CNS
[48] = system: SNB-78 CNS
[49] = system: SW-620 colon
[50] = system: TK-10 renal
[51] = system: U251 CNS
[52] = system: UACC-257 melanoma
[53] = system: UACC-62 melanoma
[54] = system: UO-31 renal
[55] = system: XF 498 CNS
[56] = system: HCC-2998 colon

Measured: TGI

CC1OC(OC2C(CO)OC(O[C@H]3CC[C@@]4(C)C(=CC[C@H]5[C@@H]6C[C@@H]7O[C@]8(CC[C@@H](C)CN8)[C@@H](C)[C@@H]7[C@@]6(C)CC[C@@H]54)C3)C(O)C2O)C(O)C(O)C1O (some centres undefined)
> 100 µM: [1] | [2] | [3] | [4] | [5] | [6] | [7] | [8] | [9] | [10] | [11] | [12] | [13] | [14] | [15] | [16] | [17] | [18] | [19] | [20] | [21] | [22] | [23] | [24] | [25] | [26] | [27] | [28] | [29] | [30] | [31] | [32] | [33] | [34] | [35] | [36] | [37] | [38] | [39] | [40] | [41] | [42] | [43] | [44] | [45] | [46] | [47] | [48] | [49] | [50] | [51] | [52] | [53] | [54] | [55]

COc1ccc2oc(C(=O)O)c3c2c1CCC3
> 100 µM: [1] | [2] | [3] | [4] | [5] | [6] | [7] | [8] | [9] | [10] | [11] | [56] | [12] | [13] | [14] | [15] | [16] | [17] | [18] | [19] | [20] | [22] | [23] | [24] | [25] | [26] | [28] | [29] | [30] | [32] | [33] | [35] | [36] | [37] | [39] | [40] | [42] | [43] | [44] | [45] | [46] | [47] | [48] | [49] | [50] | [51] | [52] | [53] | [55]
